Laboratory results taken from ChEMBL document CHEMBL1159147, “4-(2-PYRTOYL)-5-phenylthiazoles as novel non-bicyclic reversible inhibitors of the gastric H+/K+-atpase” (Bioorg Med Chem Lett, 1995).

Assays:
[1] = molecular target: T1, Potassium-transporting ATPase alpha chain 1 (Sus scrofa, UniProt P19156); assay: Ability to inhibit H+/K+ stimulated ATPase activity in lympholised gastric vesicles; format: tissue-based, Stomach
[2] = test system: Rattus norvegicus; assay: Compound was tested in vivo for its ability to inhibit pentagastrin-stimulated gastric acid secretion in the anesthetized lumen perfused rat at 10 umol/kg iv; format: functional; conditions: Stomach
[3] = Acid dissociation constant was reported; format: ADME
[4] = molecular target: T1, Potassium-transporting ATPase alpha chain 1; assay: Compound was evaluated for its ability to inhibit K+-stimulated ATPase activity
[5] = Ability to inhibit Na(+)/K(+)-stimulated ATPase activity in hog kidney; parameters: species or system Sus scrofa

T1 sequence (P19156 whole entry, the tested form may be a part): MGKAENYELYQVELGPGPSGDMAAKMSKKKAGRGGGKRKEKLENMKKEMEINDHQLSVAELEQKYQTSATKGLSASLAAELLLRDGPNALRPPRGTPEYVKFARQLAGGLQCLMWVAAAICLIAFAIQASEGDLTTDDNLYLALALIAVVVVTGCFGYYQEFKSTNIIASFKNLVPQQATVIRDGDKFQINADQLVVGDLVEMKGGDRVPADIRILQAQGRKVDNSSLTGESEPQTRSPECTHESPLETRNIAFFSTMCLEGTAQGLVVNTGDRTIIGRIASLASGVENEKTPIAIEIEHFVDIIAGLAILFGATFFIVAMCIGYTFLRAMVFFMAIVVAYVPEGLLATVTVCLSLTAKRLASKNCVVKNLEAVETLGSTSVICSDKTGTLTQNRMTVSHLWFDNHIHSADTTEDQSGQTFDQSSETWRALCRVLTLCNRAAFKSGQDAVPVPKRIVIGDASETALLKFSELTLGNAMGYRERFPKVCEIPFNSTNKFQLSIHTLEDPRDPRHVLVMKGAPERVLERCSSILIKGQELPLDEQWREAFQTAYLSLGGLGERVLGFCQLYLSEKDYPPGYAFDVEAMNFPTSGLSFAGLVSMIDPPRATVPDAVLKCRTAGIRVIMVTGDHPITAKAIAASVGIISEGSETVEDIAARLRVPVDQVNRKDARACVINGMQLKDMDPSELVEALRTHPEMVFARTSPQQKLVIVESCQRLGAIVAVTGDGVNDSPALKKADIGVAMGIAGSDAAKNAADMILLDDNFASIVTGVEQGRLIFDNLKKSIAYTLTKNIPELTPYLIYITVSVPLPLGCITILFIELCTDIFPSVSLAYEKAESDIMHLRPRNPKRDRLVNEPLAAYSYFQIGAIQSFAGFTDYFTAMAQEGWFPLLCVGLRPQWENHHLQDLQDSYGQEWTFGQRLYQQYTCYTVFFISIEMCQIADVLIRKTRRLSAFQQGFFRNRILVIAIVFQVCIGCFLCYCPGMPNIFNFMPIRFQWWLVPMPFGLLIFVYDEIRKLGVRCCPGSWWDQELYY

SMILES | IC50 [1] [µM] | pKa [3] | Ki [4] [µM] | IC50 [5] [µM] | inhibition in vivo at 10 µmol/kg [2] [%]
CCCc1nc(-c2ccccn2)c(-c2ccccc2)s1 | 42.3 | – | – | – | 21
CCOC(=O)c1cnc2c(OC)cccc2c1Nc1ccccc1C | – | 6.7 | – | – | –
CCCc1nc(-c2ccccn2)c(-c2ccccc2C)s1 | 8.2 | 4.2 | – | – | 26
Cc1ccccc1-c1sc(Cc2ccccc2)nc1-c1ccccn1 | 9.6 | – | – | – | 29
CCCc1nc(-c2cccc(NC)n2)c(-c2ccccc2C)s1 | 12.5 | – | – | – | 42

More lines, main results first:

IC50 [1] [µM] | pKa [3] | Ki [4] [µM] | IC50 [5] [µM] | SMILES | inhibition in vivo at 10 µmol/kg [2] [%]
2.9 | – | – | – | CCCc1nc(-c2cccc(N)n2)c(-c2ccccc2C)s1 | 48
2.2 | 8 | 0.838 | 44 | CCCc1nc(-c2cc(N)ccn2)c(-c2ccccc2C)s1 | 36
0.98 | – | – | – | Cc1ccccc1N1CCc2cnc3c(C)cccc3c21 | 47
4.9 | – | – | – | Cc1ccccc1-c1nc(-c2ccccn2)c(-c2ccccc2C)s1 | –
